The supplement of paper PMC11208160

Assay: recombinant barcode read abundance after kanamycin selection (control-corrected) (log10(CPM+1)); higher = more efficient recombination; sequences stand for … in AGTGCAGAGAAAATCGGCCAGTTTTCTCTGCCTGCAGTCCGCATGCCGT…AGATTTATGCAGCGGACTGCCTTTCTCCCAAAGTGATAAACCGGACAGTATCATGGACCGGTTTTCCCGGTAATCCGTATTTGCAAGGTTGGTTTCACT; site = the 11-nt target
Summary of the method: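 Reported as log10(CPM+1), each value stands for recombination efficiency. That efficiency is the averaged, control-corrected counts per million of barcodes found at recombinant junctions. Cells from a pooled E. coli library pairing targets with IS621 bridge RNA target-binding loops were plated twice on chloramphenicol/ampicillin LB agar (control) and twice on chloramphenicol/ampicillin/kanamycin with 0.1 mM IPTG.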
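Note: IS621 recombinase and bridge RNA in Escherichia coli cells.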

| Sequence | recombinant barcode read abundance (log10) |
| --- | --- |
| GTGACCGCTTGGGTTCTAACCTGTTGCCT (site GTTACCGCTAG) | 0.59 |
| GTGACCTCTTGGGTTCTAACCTGTTGCTG (site GGGACCTCTGA) | 0.0723 |
| GTGACCTCTTGGGTTCTAACCTGTTGCTG (site GTGACCTCTCA) | 1.51 |
| GTGAGGCCTTGGGTTCTAACCTGTTGCCT (site ATGAGGCCTAG) | 1.19 |
| GTGAGGCCTTGGGTTCTAACCTGTTGCCT (site CTGAGGCCTAG) | 0.151 |
| GTGAGGCCTTGGGTTCTAACCTGTTGCCT (site GTGAGGCCTAG) | 0.153 |
| GTGAGGCCTTGGGTTCTAACCTGTTGCCT (site TTGAGGCCTAG) | 0.0445 |
| GTGAGGTCTTGGGTTCTAACCTGTTGCCT (site GTGAGGTCTAA) | 0.107 |
| GTGAGGTCTTGGGTTCTAACCTGTTGCCT (site GTGAGGTCTAC) | 0.343 |
| GTGAGGTCTTGGGTTCTAACCTGTTGCCT (site GTGAGGTCTAG) | 1.62 |
| GTGAGGTCTTGGGTTCTAACCTGTTGCCT (site GTGAGGTCTAT) | 0.442 |
| GTGAGTCCTTGGGTTCTAACCTGTTGCGT (site GTGAGTCCTAC) | 2.61 |
| GTGAGTCCTTGGGTTCTAACCTGTTGCGT (site GTTGGTCCTAC) | 0.0363 |
| GTGATCCCTTGGGTTCTAACCTGTTGCTG (site GTGAACTCTCA) | 0.0648 |
| GTGATCCCTTGGGTTCTAACCTGTTGCTG (site GTGATCCCTCA) | 1.87 |
| GTGCACACTTGGGTTCTAACCTGTTGCGG (site GTGCACACTCC) | 2.44 |
| GTGCACACTTGGGTTCTAACCTGTTGCGG (site GTGCACTCTCC) | 0.322 |
| GTGCAGACTTGGGTTCTAACCTGTTGCCT (site GTACAGACTAG) | 2.5 |
| GTGCAGACTTGGGTTCTAACCTGTTGCCT (site GTCCAGACTAG) | 0.483 |
| GTGCAGACTTGGGTTCTAACCTGTTGCCT (site GTGCAGACTAG) | 2.05 |
| GTGCAGACTTGGGTTCTAACCTGTTGCCT (site GTTCAGACTAG) | 0.367 |
| GTGCCCGCTTGGGTTCTAACCTGTTGCGG (site GTGCCCGCTCC) | 1.11 |

| Sequence | recombinant barcode read abundance (log10) |
| --- | --- |
| GTGCCCGCTTGGGTTCTAACCTGTTGCGG (site GTGCCCTCTCG) | 0.205 |
| GTGCGCCCTTGGGTTCTAACCTGTTGCGT (site GTGCGCCCTAC) | 2.13 |
| GTGCGCCCTTGGGTTCTAACCTGTTGCGT (site GTGCGCCCTCC) | 0.617 |
| GTGGAGGCTTGGGTTCTAACCTGTTGCCT (site ATGGCGGCTAG) | 0.371 |
| GTGGAGGCTTGGGTTCTAACCTGTTGCCT (site GTGGAGGCTAG) | 1.5 |
| GTGGAGTCTTGGGTTCTAACCTGTTGCGT (site GTGGAGTCTAC) | 1.49 |
| GTGGAGTCTTGGGTTCTAACCTGTTGCGT (site TATCCTCCTCG) | 0.0104 |
| GTGGCGTCTTGGGTTCTAACCTGTTGCCT (site GTGGCGTCTAG) | 1.79 |
| GTGGCGTCTTGGGTTCTAACCTGTTGCCT (site TTGGCCTCTAG) | 0.104 |
| GTGGGCGCTTGGGTTCTAACCTGTTGCCT (site GTAGGCGCTAG) | 0.973 |
| GTGGGCGCTTGGGTTCTAACCTGTTGCCT (site GTCGGCGCTAG) | 0.165 |
| GTGGGCGCTTGGGTTCTAACCTGTTGCCT (site GTGGGCGCTAG) | 1.33 |
| GTGGGCGCTTGGGTTCTAACCTGTTGCCT (site GTTGGCGCTAG) | 0.524 |
| GTGGTAACTTGGGTTCTAACCTGTTGCCT (site GTGGTAACTAG) | 0.647 |
| GTGGTAACTTGGGTTCTAACCTGTTGCCT (site GTGGTACCTAG) | 0.19 |
| GTGGTAACTTGGGTTCTAACCTGTTGCCT (site GTGGTAGCTAG) | 0.3 |
| GTGGTAACTTGGGTTCTAACCTGTTGCCT (site GTGGTATCTAG) | 0.0678 |
| GTGTACTCTTGGGTTCTAACCTGTTGCTT (site GTGGACTCTTA) | 0.0612 |
| GTGTACTCTTGGGTTCTAACCTGTTGCTT (site GTGTACTCTAA) | 1.35 |
| GTGTATCCTTGGGTTCTAACCTGTTGCAT (site GTGTATCCTAT) | 1.7 |
| GTGTATCCTTGGGTTCTAACCTGTTGCAT (site GTGTCTCCTAT) | 0.279 |
